Target: GDP-bound KRAS protein (aa 1-169), containing both G12C and C118A amino acid substitutions (Homo sapiens, UniProt P01116, C118A/G12C)
Assay: Coupled nucleotide exchange assay (SOS-mediated, AlphaScreen)
Assay type: biochemical
Conditions: for Coupled exchange IC50 (5 min): 5 min compound pre-incubation

Chain of GDP-bound KRAS protein (aa 1-169), containing both G12C and C118A amino acid substitutions (P01116 1-169 isoform P01116-2 G12C/C118A): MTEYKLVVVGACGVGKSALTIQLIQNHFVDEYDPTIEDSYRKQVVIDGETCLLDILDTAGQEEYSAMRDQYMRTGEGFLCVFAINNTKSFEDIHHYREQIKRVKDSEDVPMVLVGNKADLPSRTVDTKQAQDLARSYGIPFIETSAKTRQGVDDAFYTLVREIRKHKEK

## C=CC(=O)N1CCN(c2nc(CN(C)C)c(-c3ccccc3C(C)C)c3nc(-c4ccccc4F)c(Cl)cc23)CC1 [86-2, 1-(4-(3-chloro-7-((dimethylamino)methyl)-2-(2-fluorophenyl)-8-(2-(2-propanyl)phenyl)-1,6-naphthyridin-5-yl)-1-piperazinyl)-2-propen-1-one]
  Coupled exchange IC50 (5 min): 6.6 | nda μM

## C=CC(=O)N1CCN(c2nc(=O)n(CC(F)(F)F)c3nc(-c4c(O)cccc4F)c(Cl)cc23)[C@@H](C)C1 [Example 54-7, 6-chloro-7-(2-fluoro-6-hydroxyphenyl)-4-((2S)-2-methyl-4-(2-propenoyl)-1-piperazinyl)-1-(2,2,2-trifluoroethyl) pyrido [2,3-d]pyrimidin-2(1H)-one]
  Coupled exchange IC50 (5 min): 1.75 | nda μM

## C=CC(=O)N1CCN(c2nc(=O)n(-c3nc(C)ccc3C(C)C)c3nc(-c4c(O)cccc4F)c(Cl)cc23)[C@@H](C)C1 [Example 54-14, 6-chloro-7-(2-fluoro-6-hydroxyphenyl)-1-(6-methyl-3-(2-propanyl)-2-pyridinyl)-4-((2S)-2-methyl-4-(2-propenoyl)-1-piperazinyl) pyrido[2,3-d]pyrimidin-2(1H)-one]
  Coupled exchange IC50 (5 min): 12.4 | nda μM

## C=CC(=O)N1CCN(c2nc(=O)n(-c3ccccc3CC#N)c3nc(-c4c(O)cccc4F)c(Cl)cc23)[C@@H](C)C1 [Example 54-19, (2-(6-chloro-7-(2-fluoro-6-hydroxyphenyl)-4-((2S)-2-methyl-4-(2-propenoyl)-1-piperazinyl)-2-oxopyrido[2,3-d]pyrimidin-1(2H)-yl)phenyl) acetonitrile]
  Coupled exchange IC50 (5 min): 12.2 | nda μM

## C=CC(=O)N1CCN(c2nc(=O)n(-c3nccnc3C(C)C)c3nc(-c4ccccc4F)c(Cl)cc23)[C@@H](C)C1 [Example 54-20]
  Coupled exchange IC50 (5 min): 2.26 | nda μM

## C=CC(=O)N1CCN(c2nc(=O)n(-c3ncccc3C3(C#N)CC3)c3nc(-c4ccccc4F)c(Cl)cc23)[C@@H](C)C1 [Example 54-39, 1-(2-(6-chloro-7-(2-fluorophenyl)-4-((2S)-2-methyl-4-(2-propenoyl)-1-piperazinyl)-2-oxopyrido[2,3-d]pyrimidin-1(2H)-yl)-3-pyridinyl) cyclopropane carbonitrile]
  Coupled exchange IC50 (5 min): 32.1 | nda μM

## C=CC(=O)N1CCN(c2nc(=O)n(-c3ncccc3C3(C#N)CC3)c3nc(-c4c(O)cccc4F)c(Cl)cc23)[C@@H](C)C1 [Example 54-40, 1-(2-(6-chloro-7-(2-fluoro-6-hydroxyphenyl)-4-((2S)-2-methyl-4-(2-propenoyl)-1-piperazinyl)-2-oxopyrido[2,3-d]pyrimidin-1(2H)-yl)-3-pyridinyl) cyclopropane carbonitrile]
  Coupled exchange IC50 (5 min): 21.3 | nda μM

## C=CC(=O)N1CCN(c2nc(=O)n(-c3ccccc3C(C)C)c3nc(-c4c(C)noc4C)c(Cl)cc23)[C@@H](C)C1 [Example 54-44, 6-chloro-7-(3,5-dimethyl-1,2-oxazol-4-yl)-4-((2S)-2-methyl-4-(2-propenoyl)-1-piperazinyl)-1-(2-(2-propanyl)phenyl)pyrido [2,3-d]pyrimidin-2(1H)-one]
  Coupled exchange IC50 (5 min): 3.9 | nda μM

## C=CC(=O)N1CCN(c2nc(=O)n(-c3ccccc3C(C)C)c3nc(-c4ccc[nH]4)c(Cl)cc23)[C@@H](C)C1 [Example 54-46, 6-chloro-4-((2S)-2-methyl-4-(2-propenoyl)-1-piperazinyl)-1-(2-(2-propanyl)phenyl)-7-(1H-pyrrol-2-yl)pyrido[2,3-d]pyrimidin-2(1H)-one]
  Coupled exchange IC50 (5 min): 7.24 | nda μM

## C=CC(=O)N1CCN(c2nc(=O)n(-c3ccccc3C(C)C)c3nc(-c4ccco4)c(Cl)cc23)[C@@H](C)C1 [Example 54-47, 6-chloro-7-(2-furanyl)-4-((2S)-2-methyl-4-(2-propenoyl)-1-piperazinyl)-1-(2-(2-propanyl)phenyl)pyrido [2,3-d]pyrimidin-2(1H)-one]
  Coupled exchange IC50 (5 min): 10.7 | nda μM

## C=CC(=O)N1CCN(c2nc(=O)n(-c3ccccc3OC(F)(F)F)c3nc(-c4c(O)cccc4F)c(Cl)cc23)[C@@H](C)C1 [Example 54-49, 6-chloro-7-(2-fluoro-6-hydroxyphenyl)-4-((2S)-2-methyl-4-(2-propenoyl)-1-piperazinyl)-1-(2-(trifluoromethoxy)phenyl) pyrido[2,3-d]pyrimidin-2(1H)-one]
  Coupled exchange IC50 (5 min): 5.65 | nda μM

## C=CC(=O)N1C[C@@H]2C[C@H]1CN2c1nc(=O)n(-c2ccccc2C(C)C)c2nc(-c3c(O)cccc3F)c(Cl)cc12 [Example 54-50, 4-((1S,4S)-5-acryloyl-2,5-diazabicyclo [2.2.1]heptan-2-yl)-6-chloro-7-(2-fluoro-6-hydroxyphenyl)-1-(2-isopropylphenyl) pyrido [2,3-d]pyrimidin-2(1H)-one]
  Coupled exchange IC50 (5 min): 88.8 | nda μM

## C=CC(=O)N1CCN(c2nc(=O)n(-c3ccccc3S(C)(=O)=O)c3nc(-c4c(O)cccc4F)c(Cl)cc23)[C@@H](C)C1 [Example 54-56, 6-chloro-7-(2-fluoro-6-hydroxyphenyl)-4-((2S)-2-methyl-4-(2-propenoyl)-1-piperazinyl)-1-(2-(methylsulfonyl)phenyl) pyrido[2,3-d]pyrimidin-2(1H)-one]
  Coupled exchange IC50 (5 min): 1.42 | nda μM

## C=CC(=O)N1CCN(c2nc(=O)n(-c3ccccc3S(C)(=O)=O)c3nc(-c4c(O)cccc4F)c(Cl)cc23)[C@@H](C)C1 [Example 54-56-1]
  Coupled exchange IC50 (5 min): 2.49 | nda μM

## C=CC(=O)N1CCN(c2nc(=O)n(-c3ccccc3C#N)c3nc(-c4c(O)cccc4F)c(Cl)cc23)[C@@H](C)C1 [Example 54-58, 2-(6-chloro-7-(2-fluoro-6-hydroxyphenyl)-4-((2S)-2-methyl-4-(2-propenoyl)-1-piperazinyl)-2-oxopyrido[2,3-d]pyrimidin-1(2H)-yl)benzonitrile]
  Coupled exchange IC50 (5 min): 3.44 | nda μM

## C=CC(=O)N1CCN(c2nc(=O)n(-c3c(CC)cccc3CC)c3nc(Oc4cccc(F)c4)c(Cl)cc23)[C@@H](C)C1 [Example 54-64, 6-chloro-1-(2,6-diethylphenyl)-7-(3-fluorophenoxy)-4-((2S)-2-methyl-4-(2-propenoyl)-1-piperazinyl) pyrido[2,3-d]pyrimidin-2(1H)-one]
2 h compound pre-incubation
  Coupled exchange IC50 (2 h): nda | 7.97 μM

## C=CC(=O)N1CCN(c2nc(=O)n(-c3c(OC)cccc3OC)c3nc(-c4ccccc4F)c(Cl)cc23)[C@@H](C)C1 [Example 54-68, 6-chloro-1-(2,6-dimethoxy-phenyl)-7-(2-fluorophenyl)-4-((2S)-2-methyl-4-(2-propenoyl)-1-piperazinyl) pyrido[2,3-d]pyrimidin-2(1H)-one]
  Coupled exchange IC50 (5 min): 4.65 | nda μM

## C=CC(=O)N1CCN(c2nc(=O)n(-c3ccccc3C(C)C)c3nc(C4=CCCCC4)c(Cl)cc23)[C@@H](C)C1 [Example 54-75, 6-chloro-7-(1-cyclohexen-1-yl)-4-((2S)-2-methyl-4-(2-propenoyl)-1-piperazinyl)-1-(2-(2-propanyl)phenyl)pyrido [2,3-d]pyrimidin-2(1H)-one]
  Coupled exchange IC50 (5 min): 1.08 | nda μM

## C=CC(=O)N1CCN(c2nc(=O)n(-c3ccccc3C(C)C)c3nc(C4=CCCOC4)c(Cl)cc23)[C@@H](C)C1 [Example 54-76, 6-chloro-7-(5,6-dihydro-2H-pyran-3-yl)-4-((2S)-2-methyl-4-(2-propenoyl)-1-piperazinyl)-1-(2-(2-propanyl)phenyl)pyrido [2,3-d]pyrimidin-2(1H)-one]
  Coupled exchange IC50 (5 min): 5.48 | nda μM

## C=CC(=O)N1CCN(c2nc(=O)n(-c3ccccc3C(C)C)c3nc(-c4ncccc4F)c(Cl)cc23)[C@@H](C)C1 [Example 54-92, 6-chloro-7-(3-fluoro-2-pyridinyl)-4-((2S)-2-methyl-4-(2-propenoyl)-1-piperazinyl)-1-(2-(2-propanyl)phenyl)pyrido [2,3-d]pyrimidin-2(1H)-one]
  Coupled exchange IC50 (5 min): 1.27 | nda μM

## C=CC(=O)N1CCN(c2nc(=O)n(-c3ccccc3C(C)C)c3nc(-c4ncc(F)cc4F)c(Cl)cc23)[C@@H](C)C1 [Example 54-93, 6-chloro-7-(3,5-difluoro-2-pyridinyl)-4-((2S)-2-methyl-4-(2-propenoyl)-1-piperazinyl)-1-(2-(2-propanyl)phenyl)pyrido [2,3-d]pyrimidin-2(1H)-one]
  Coupled exchange IC50 (5 min): 1.43 | nda μM

## C=CC(=O)N1CCN(c2nc(=O)n(-c3ccccc3C(C)C)c3nc(-c4ncccc4Cl)c(Cl)cc23)[C@@H](C)C1 [Example 54-94, 6-chloro-7-(3-chloro-2-pyridinyl)-4-((2S)-2-methyl-4-(2-propenoyl)-1-piperazinyl)-1-(2-(2-propanyl)phenyl)pyrido [2,3-d]pyrimidin-2(1H)-one]
  Coupled exchange IC50 (5 min): 1.19 | nda μM

## C=CC(=O)N1CCN(c2nc(=O)n(-c3ccccc3C3(C)CC3)c3nc(Cl)c(Cl)cc23)[C@@H](C)C1 [Example 54-98]
  Coupled exchange IC50 (5 min): 5.45 | nda μM

## C=CC(=O)N1CCN(c2nc(=O)n(-c3ccccc3N3CCOCC3)c3nc(-c4c(O)cccc4F)c(Cl)cc23)[C@@H](C)C1 [Example 54-100, 6-chloro-7-(2-fluoro-6-hydroxyphenyl)-4-((2S)-2-methyl-4-(2-propenoyl)-1-piperazinyl)-1-(2-(4-morpholinyl)phenyl) pyrido[2,3-d] pyrimidin-2(1H)-one]
  Coupled exchange IC50 (5 min): 2.51 | nda μM

## C=CC(=O)N1CCN(c2nc(=O)n(-c3c(CC)n[nH]c3CC)c3nc(-c4ccccc4F)c(Cl)cc23)[C@@H](C)C1 [Example 54-106]
  Coupled exchange IC50 (5 min): 0.51 | nda μM

## C=CC(=O)N1CCN(c2nc(=O)n(-c3c[nH]cc3C(C)C)c3nc(-c4ccccc4F)c(Cl)cc23)[C@@H](C)C1 [Example 54-109, 6-chloro-7-(2-fluorophenyl)-4-((2S)-2-methyl-4-(2-propenoyl)-1-piperazinyl)-1-(4-(2-propanyl)-1H-pyrrol-3-yl)pyrido[2,3-d]pyrimidin-2(1H)-one]
  Coupled exchange IC50 (5 min): 0.355 | nda μM

## C=CC(=O)N1CCN(c2nc(=O)n(-c3c(C)ccnc3N(C)C)c3nc(-c4ccccc4F)c(Cl)cc23)[C@@H](C)C1 [Example 55-7]
  Coupled exchange IC50 (5 min): 0.806 | nda μM

— patent US11090304B2 (Amgen Inc., priority 2018, dated 2021)
